Measured values taken from US20250205191A1, “R(-)-MDMA COMPOSITIONS AND METHODS OF TREATMENT” (EmpathBio, Inc., priority 2023, published 2025).

Tests used:
[1] = Phase 1 clinical study, urine pharmacokinetics (urinalysis); assay type: in vivo, human
[2] = biological target: T1, human 5-HT2B receptor (Homo sapiens, UniProt P41595); assay: 5-HT2B agonism, inositol monophosphate accumulation (HTRF), CHO-K1 recombinant cells; assay type: cell-based
T1 construct: expressed in transfected cells; host or cells: CHO-K1
T1 sequence (P41595 whole entry): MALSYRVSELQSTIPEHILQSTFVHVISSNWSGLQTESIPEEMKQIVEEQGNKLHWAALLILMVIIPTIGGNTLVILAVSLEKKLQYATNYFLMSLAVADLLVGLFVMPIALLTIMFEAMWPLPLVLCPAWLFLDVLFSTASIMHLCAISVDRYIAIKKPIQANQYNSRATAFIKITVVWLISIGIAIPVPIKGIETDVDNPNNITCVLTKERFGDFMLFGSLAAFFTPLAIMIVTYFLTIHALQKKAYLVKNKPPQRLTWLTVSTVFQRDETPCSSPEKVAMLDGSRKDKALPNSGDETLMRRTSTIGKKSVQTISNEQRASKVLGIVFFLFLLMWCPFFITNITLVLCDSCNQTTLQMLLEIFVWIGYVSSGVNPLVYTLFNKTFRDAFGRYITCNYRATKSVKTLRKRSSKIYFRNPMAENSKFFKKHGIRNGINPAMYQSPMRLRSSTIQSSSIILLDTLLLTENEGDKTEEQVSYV

[3] = system: male C57BL/6J mice; assay: Mouse extinction of fear learning assay; assay type: in vivo; settings: vs vehicle
Protocol: Extinction of fear learning in rodents is a useful assay to understand if compounds have the potential to enhance learning processes that may be involved in recovery from SAD and other stress and anxiety related disorders, due to its resemblance to exposure-based therapy in humans. […] Freezing behavior, an indicator of the fear response, was measured in the presence of the CS during the extinction training session (Day 1) and the day after (Day 2, Extinction Testing, in the absence of test article). Locomotor activity was measured during the initial 2-minute habituation period, prior to the presentation of the CS, on Days 1 and 2.

[4] = biological target: T2, human 5-HT2C (non-edited) receptor (Homo sapiens, UniProt P28335); assay: 5-HT2C (non-edited) agonism, inositol monophosphate accumulation (HTRF), CHO-K1 recombinant cells; assay type: cell-based
T2 construct: expressed in transfected cells; host or cells: CHO-K1
T2 sequence (P28335 33-458): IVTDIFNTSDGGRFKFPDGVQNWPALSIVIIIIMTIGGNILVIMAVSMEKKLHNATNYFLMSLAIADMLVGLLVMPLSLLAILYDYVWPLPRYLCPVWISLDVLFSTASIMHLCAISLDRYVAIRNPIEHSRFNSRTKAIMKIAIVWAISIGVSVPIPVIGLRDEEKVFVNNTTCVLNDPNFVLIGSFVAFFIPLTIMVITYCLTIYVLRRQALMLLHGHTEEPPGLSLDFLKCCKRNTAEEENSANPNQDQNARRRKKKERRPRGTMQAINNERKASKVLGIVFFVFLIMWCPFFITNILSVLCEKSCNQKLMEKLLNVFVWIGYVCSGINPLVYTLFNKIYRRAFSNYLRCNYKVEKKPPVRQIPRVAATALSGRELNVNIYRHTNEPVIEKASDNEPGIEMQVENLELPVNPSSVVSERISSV

[5] = system: oxytocin; assay: Phase 1 hormone response, oxytocin; assay type: in vivo, human; settings: any cohort vs placebo group
[6] = biological target: T3, human 5-HT2C (edited) receptor (Homo sapiens, UniProt P28335); assay: 5-HT2C (edited) agonism, inositol monophosphate accumulation (HTRF), CHO-K1 recombinant cells; assay type: cell-based
T3 sequence (P28335 33-458): T2 sequence (P28335 33-458)

[7] = system: healthy volunteers; assay: Phase 1 clinical study, safety and tolerability; assay type: in vivo, human
Source text: The primary endpoints assessed the safety, tolerability, pharmacokinetics (PK), and exploratory pharmacodynamic (PD) observations. Treatment-related adverse events (AEs) were in line with expectations (e.g., nausea at 29.2%, headache at 16.7%) and generally dose dependent.

[8] = urine analyte after EMP-01 125 mg, Day 9
[9] = urine analyte after single oral 75 mg R(−)-MDMA, Day 1
[10] = urine analyte after single oral 125 mg R(−)-MDMA, Day 1
[11] = urine analyte after single oral 175 mg R(−)-MDMA, Day 1
[12] = urine analyte after single oral 225 mg R(−)-MDMA, Day 1
[13] = single oral 75-225 mg, healthy participants

## CN[C@H](C)Cc1ccc2c(c1)OCO2 [R(−)-MDMA, R(−)-3,4-methylenedioxymethamphetamine]
[1]; 0-4 hours postdose
  detection in urine: detected in urine in all participants by the first collection interval
[1]; across dose groups
  mean cumulative amount excreted in urine (CAe), trend: dose-related increase
  mean renal clearance (CLr), trend: approximately similar across all dose groups
[1]; all intervals to 30 hours
  mean urine concentration over collection intervals: highest in the 12-24 hour collection interval
[1]; [8]
  Ae12-24, amount excreted at the 12-24 hour collection interval: 18.5655 (12.7511) mg
  CAe, cumulative amount of drug excreted: 40.5567 (15.5851) mg
  CFe, cumulative fraction of drug excreted: 32.4453 (12.4681) %
  CLr, renal clearance rate: 5.2324 (1.8093) L/h
  Fe12-24, fraction of drug excreted at the 12-24 hour collection interval: 14.8524 (10.2009) %
[1]; [9]
  Ae12-24, amount excreted at the 12-24 hour collection interval: 7.6917 (3.1509) mg
  CAe, cumulative amount of drug excreted: 20.0733 (9.7605) mg
  CFe, cumulative fraction of drug excreted: 26.7643 (13.0140) %
  CLr, renal clearance rate: 4.9966 (1.2255) L/h
  Fe12-24, fraction of drug excreted at the 12-24 hour collection interval: 10.2556 (4.2012) %
[1]; [10]
  Ae12-24, amount excreted at the 12-24 hour collection interval: 14.5039 (5.6733) mg
  CAe, cumulative amount of drug excreted: 28.2063 (7.8540) mg
  CFe, cumulative fraction of drug excreted: 22.5650 (6.2832) %
  CLr, renal clearance rate: 3.9900 (1.0288) L/h
  Fe12-24, fraction of drug excreted at the 12-24 hour collection interval: 11.6031 (4.5387) %
[1]; [11]
  Ae12-24, amount excreted at the 12-24 hour collection interval: 20.3702 (13.5536) mg
  CAe, cumulative amount of drug excreted: 59.6271 (34.2201) mg
  CFe, cumulative fraction of drug excreted: 34.0726 (19.5543) %
  CLr, renal clearance rate: 5.9108 (2.5782) L/h
  Fe12-24, fraction of drug excreted at the 12-24 hour collection interval: 11.6401 (7.7449) %
[1]; [12]
  Ae12-24, amount excreted at the 12-24 hour collection interval: 36.8357 (16.8611) mg
  CAe, cumulative amount of drug excreted: 76.0465 (15.1167) mg
  CFe, cumulative fraction of drug excreted: 33.7985 (6.7186) %
  CLr, renal clearance rate: 5.5411 (1.6424) L/h
  Fe12-24, fraction of drug excreted at the 12-24 hour collection interval: 16.3714 (7.4938) %
[2]; 5-HT2B receptors
  agonism in words: high potency full agonism
[2]; 5-HT2B, CHO-K1, IP accumulation
  EC50: 53 nM
[2]; 5-HT2B, relative to α-Me-5-HT at its EC100
  Efficacy (% of a-Me-5-HT response): 91.8%
[3]; 10 mg/kg IP once
  freezing behavior: significantly reduced freezing behavior on Day 2 only
  locomotor activity: significantly increased activity on Day 1 only
[3]; 17 mg/kg IP once
  freezing behavior: significant reductions of freezing behavior on Days 1 and 2
  locomotor activity: significantly increased activity on Day 1 only
[3]; 30 mg/kg IP once
  freezing behavior: significant reductions of freezing behavior on Days 1 and 2
  locomotor activity (activity counts): significant increases in activity counts on Days 1 and 2
[4]; 5-HT2C (non-edited) receptors
  agonism in words: high potency full agonism
[4]; 5-HT2C (non-edited), relative to α-Me-5-HT at its EC100
  Efficacy (% of a-Me-5-HT response): 97.9%
[5]
  oxytocin production: did not appear to have an effect
[6]; 5-HT2C (edited) receptors
  agonism in words: high potency full agonism
[6]; 5-HT2C (edited), relative to α-Me-5-HT at its EC100
  Efficacy (% of a-Me-5-HT response): 96.6%
[7]; highest dose (225 mg)
  bruxism: observed in a single subject
[7]; single oral 75-225 mg
  peak body temperatures: within the normal range
  serious or severe AEs: no serious or severe AEs were observed
  study discontinuations: no study discontinuations
[7]; [13]
  treatment-related adverse event: headache: 16.7%
  treatment-related adverse event: nausea: 29.2%
[7]; single oral 75-225 mg, limited dose dependency
  blood pressure and heart rate: Non-clinically significant increases
